From the NIST ThermoML archive (doi:10.1016/j.jct.2006.05.007)
Numbers after ± are expanded uncertainties.

Conditions: Liquid

## CCOC(C)(C)C [2-ethoxy-2-methylpropane]
298.25 K, Twin ebulliometer
  vapor or sublimation pressure: 16.83 ± 0.042 kPa
303.13 K, Twin ebulliometer
  vapor or sublimation pressure: 20.88 ± 0.042 kPa
307.44 K, Twin ebulliometer
  vapor or sublimation pressure: 25.07 ± 0.043 kPa
312.55 K, Twin ebulliometer
  vapor or sublimation pressure: 30.91 ± 0.044 kPa
317.29 K, Twin ebulliometer
  vapor or sublimation pressure: 37.26 ± 0.045 kPa
322.74 K, Twin ebulliometer
  vapor or sublimation pressure: 45.83 ± 0.046 kPa
328.3 K, Twin ebulliometer
  vapor or sublimation pressure: 56.12 ± 0.048 kPa
333.56 K, Twin ebulliometer
  vapor or sublimation pressure: 67.49 ± 0.05 kPa
339.17 K, Twin ebulliometer
  vapor or sublimation pressure: 81.57 ± 0.053 kPa
343.23 K, Twin ebulliometer
  vapor or sublimation pressure: 93.18 ± 0.057 kPa
343.89 K, Twin ebulliometer
  vapor or sublimation pressure: 95.31 ± 0.057 kPa
344.57 K, Twin ebulliometer
  vapor or sublimation pressure: 97.44 ± 0.057 kPa
345.25 K, Twin ebulliometer
  vapor or sublimation pressure: 99.6 ± 0.057 kPa
345.92 K, Twin ebulliometer
  vapor or sublimation pressure: 101.69 ± 0.057 kPa

## CC(C)OC(C)C [diisopropyl ether]
308.58 K, Twin ebulliometer
  vapor or sublimation pressure: 30.91 ± 0.044 kPa
313.25 K, Twin ebulliometer
  vapor or sublimation pressure: 37.26 ± 0.045 kPa
318.65 K, Twin ebulliometer
  vapor or sublimation pressure: 45.83 ± 0.046 kPa
324.17 K, Twin ebulliometer
  vapor or sublimation pressure: 56.12 ± 0.048 kPa
329.4 K, Twin ebulliometer
  vapor or sublimation pressure: 67.49 ± 0.05 kPa
334.98 K, Twin ebulliometer
  vapor or sublimation pressure: 81.57 ± 0.053 kPa
339.03 K, Twin ebulliometer
  vapor or sublimation pressure: 93.18 ± 0.055 kPa
339.73 K, Twin ebulliometer
  vapor or sublimation pressure: 95.31 ± 0.056 kPa
340.41 K, Twin ebulliometer
  vapor or sublimation pressure: 97.44 ± 0.056 kPa

## CC(C)COC(C)(C)C [isobutyl tert-butyl ether]
310.61 K, Ebulliometric method (Recirculating still)
  vapor or sublimation pressure: 6.234 ± 0.041 kPa
317.06 K, Ebulliometric method (Recirculating still)
  vapor or sublimation pressure: 8.426 ± 0.041 kPa
322.6 K, Ebulliometric method (Recirculating still)
  vapor or sublimation pressure: 10.8 ± 0.041 kPa
327.65 K, Ebulliometric method (Recirculating still)
  vapor or sublimation pressure: 13.43 ± 0.041 kPa
333.13 K, Ebulliometric method (Recirculating still)
  vapor or sublimation pressure: 16.83 ± 0.042 kPa
338.55 K, Ebulliometric method (Recirculating still)
  vapor or sublimation pressure: 20.88 ± 0.042 kPa
343.33 K, Ebulliometric method (Recirculating still)
  vapor or sublimation pressure: 25.07 ± 0.043 kPa
349 K, Ebulliometric method (Recirculating still)
  vapor or sublimation pressure: 30.91 ± 0.043 kPa
354.26 K, Ebulliometric method (Recirculating still)
  vapor or sublimation pressure: 37.26 ± 0.044 kPa
360.31 K, Ebulliometric method (Recirculating still)
  vapor or sublimation pressure: 45.83 ± 0.045 kPa
366.48 K, Ebulliometric method (Recirculating still)
  vapor or sublimation pressure: 56.12 ± 0.047 kPa
372.35 K, Ebulliometric method (Recirculating still)
  vapor or sublimation pressure: 67.49 ± 0.049 kPa
378.59 K, Ebulliometric method (Recirculating still)
  vapor or sublimation pressure: 81.57 ± 0.051 kPa
383.13 K, Ebulliometric method (Recirculating still)
  vapor or sublimation pressure: 93.18 ± 0.054 kPa
383.92 K, Ebulliometric method (Recirculating still)
  vapor or sublimation pressure: 95.31 ± 0.054 kPa
384.69 K, Ebulliometric method (Recirculating still)
  vapor or sublimation pressure: 97.44 ± 0.055 kPa
385.45 K, Ebulliometric method (Recirculating still)
  vapor or sublimation pressure: 99.6 ± 0.055 kPa
